Test results: ChEMBL document CHEMBL3039007, “Structure-based identification of OATP1B1/3 inhibitors” (Mol Pharmacol, 2013)

Tests used:
[1] = molecular target: T1, Solute carrier organic anion transporter family member 1B3 (Homo sapiens, UniProt Q9NPD5); settings: chinese hamster, cho, 10 µM
T1 sequence (Q9NPD5 whole entry): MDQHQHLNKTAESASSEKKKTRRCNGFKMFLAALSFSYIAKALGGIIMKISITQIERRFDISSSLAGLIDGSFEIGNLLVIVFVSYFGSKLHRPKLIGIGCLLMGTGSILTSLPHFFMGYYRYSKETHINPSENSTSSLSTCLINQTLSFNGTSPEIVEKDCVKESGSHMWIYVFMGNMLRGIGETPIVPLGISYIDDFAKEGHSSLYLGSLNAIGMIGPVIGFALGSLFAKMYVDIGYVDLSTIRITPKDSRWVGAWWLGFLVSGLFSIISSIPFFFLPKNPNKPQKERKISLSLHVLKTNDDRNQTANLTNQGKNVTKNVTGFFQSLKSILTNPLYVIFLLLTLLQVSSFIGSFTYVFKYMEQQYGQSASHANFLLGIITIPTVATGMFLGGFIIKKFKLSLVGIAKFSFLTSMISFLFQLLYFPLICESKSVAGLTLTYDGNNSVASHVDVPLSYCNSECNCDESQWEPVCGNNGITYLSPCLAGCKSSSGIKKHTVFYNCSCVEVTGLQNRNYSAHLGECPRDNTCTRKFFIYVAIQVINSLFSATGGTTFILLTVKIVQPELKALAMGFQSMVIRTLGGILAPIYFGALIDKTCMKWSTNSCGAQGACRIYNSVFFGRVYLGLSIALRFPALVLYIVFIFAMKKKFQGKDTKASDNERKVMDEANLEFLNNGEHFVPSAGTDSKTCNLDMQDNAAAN

[2] = molecular target: T2, Solute carrier organic anion transporter family member 1B1 (Homo sapiens, UniProt Q9Y6L6); settings: chinese hamster, cho, 10 µM
T2 sequence (Q9Y6L6 whole entry): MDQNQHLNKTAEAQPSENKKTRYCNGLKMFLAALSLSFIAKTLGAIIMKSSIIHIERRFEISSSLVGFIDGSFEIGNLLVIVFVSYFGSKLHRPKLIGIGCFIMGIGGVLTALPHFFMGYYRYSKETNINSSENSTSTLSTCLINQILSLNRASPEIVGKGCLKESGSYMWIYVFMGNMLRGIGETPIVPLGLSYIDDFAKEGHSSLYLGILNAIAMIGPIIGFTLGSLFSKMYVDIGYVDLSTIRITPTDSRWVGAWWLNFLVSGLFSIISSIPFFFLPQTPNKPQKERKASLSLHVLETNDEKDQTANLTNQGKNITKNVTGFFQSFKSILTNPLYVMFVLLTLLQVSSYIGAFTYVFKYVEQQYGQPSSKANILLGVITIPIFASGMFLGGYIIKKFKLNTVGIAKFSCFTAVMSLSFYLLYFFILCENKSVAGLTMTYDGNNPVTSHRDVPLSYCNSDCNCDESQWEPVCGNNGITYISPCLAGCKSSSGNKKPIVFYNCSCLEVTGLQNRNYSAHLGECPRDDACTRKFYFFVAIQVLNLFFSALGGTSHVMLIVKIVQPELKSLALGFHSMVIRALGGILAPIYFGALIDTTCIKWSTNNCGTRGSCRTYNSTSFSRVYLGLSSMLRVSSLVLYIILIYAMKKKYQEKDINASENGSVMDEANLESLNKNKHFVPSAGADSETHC

Row | SMILES | residual activity [1] [%] | residual activity [2] [%]
1 | CC(C)CCC[C@@H](C)[C@H]1CC[C@H]2[C@@H]3CC(=O)[C@H]4C[C@@H](O)CC[C@]4(C)[C@H]3CC[C@]12C [5alpha-CHOLESTAN-3beta-OL-6-ONE] | 105.8 | 101.9
2 | O=C(O)c1nc2cc(Cl)c(Cl)cc2nc1O [6,7-DICHLORO-3-HYDROXY-2-QUINOXALINECARBOXYLIC ACID] | 108 | 119
3 | NC(=O)c1ccc(N)nc1 [6-AMINONICOTINAMIDE] | 108.6 | 103.2
4 | C=C1C2CC[C@@]3(C)[C@H](c4ccoc4)OC(=O)C[C@]13O[C@H]1CC(=O)C(C)(C)[C@H](C(O)C(=O)OC)[C@@]21C (some centres undefined) [6-HYDROXYANGOLENSIC ACID METHYL ESTER] | 61.1 | 23.65
5 | Cn1c(=O)c2c(ncn2CCCl)n(C)c1=O [7-CHLOROETHYLTHEOPHYLLINE] | 97.15 | 90.03
6 | CC(C)CCC[C@@H](C)[C@H]1CC[C@H]2[C@@H]3C(=O)C=C4C[C@@H](O)CC[C@]4(C)[C@H]3CC[C@]12C [7-OXOCHOLESTEROL] | 90.78 | 96.87
7 | CC(=O)O[C@H]1CC[C@@]2(C)C(=CC(=O)[C@H]3[C@@H]4CC[C@H]([C@H](C)CCCC(C)C)[C@@]4(C)CC[C@@H]32)C1 [7-OXOCHOLESTERYL ACETATE] | 99.45 | 97.51
8 | Cn1c(=O)c2[nH]c(C3CCCC3)nc2n(C)c1=O [8-CYCLOPENTYLTHEOPHYLLINE] | 94.04 | 111.5
9 | CC(=O)/C=C\[C@@H]1[C@@]2(C)CCCC(C)(C)C2CC[C@@]1(C)O (some centres undefined) [8-HYDROXY-15,16-BISNOR-11-LABDEN-13-ONE] | 84.33 | 71.14
10 | CC1(C)C(=O)[C@H]2C[C@]3(O)C4=CC(=O)O[C@@H](c5ccoc5)[C@@]4(C)CCC3[C@](C)(C2=O)[C@H]1CC(=O)O (some centres undefined) [8-HYDROXYCARAPINIC ACID] | 78.38 | 73.89
11 | COc1ccc([C@H]2Oc3c(I)c(OC)cc(OC)c3C[C@@H]2O)cc1OC [8-IODOCATECHIN TETRAMETHYL ETHER] | 100.1 | 194.8

Results, then the compound that gave them:

Row | residual activity [1] [%] | residual activity [2] [%] | SMILES
12 | 120.4 | 131.7 | COc1cccc(-c2cc(=O)c3cc(OC)ccc3o2)c1 [6,3'-DIMETHOXYFLAVONE]
13 | 110.4 | 34.44 | COc1ccc(-c2cc(=O)c3cc(OC)ccc3o2)cc1 [6,4'-DIMETHOXYFLAVONE]
14 | 110.5 | 95.82 | COc1ccc2c(=O)cc(-c3ccccc3OC)oc2c1 [7,2'-DIMETHOXYFLAVONE]
15 | 101.6 | 98.64 | COc1cccc(-c2cc(=O)c3ccc(OC)cc3o2)c1 [7,3'-DIMETHOXYFLAVONE]
16 | 140.6 | 107.3 | O=c1cc(-c2ccccc2)oc2c(O)c(O)ccc12 [7,8-DIHYDROXYFLAVONE]
17 | 89.9 | 93.09 | O=C(O)c1cc(O)c2ccc(Cl)cc2n1 [7-CHLOROKYNURENIC ACID]
18 | 69.89 | 100.2 | O=C(O)c1cc(O)c(=O)c2c(O)c(O)ccc2c1 [7-DESHYDROXYPYROGALLIN-4-CARBOXYLIC ACID]
19 | 95.23 | 91.79 | COc1ccc2c(=O)ccoc2c1 [7-METHOXYCHROMONE]
20 | 106.1 | 147.5 | O=[N+]([O-])c1cccc2cn[nH]c12 [7-NITROINDAZOLE]
21 | 105.6 | 127.8 | COC(=O)[C@]1(C)CCC[C@]2(C)c3ccc(C(C)C)cc3C(=O)CC12 (some centres undefined) [7-OXOCALLITRISIC ACID, METHYL ESTER]
22 | 108 | 107.3 | COc1ccccc1-c1cc(=O)c2cccc(OC)c2o1 [8,2'-DIMETHOXYFLAVONE]
